Holding throughout (type): cell-based
Assay [1] has as its target T1, human OCTN1 (Homo sapiens, UniProt Q9H015, I306T/L503F).
T1 construct: cDNA containing the entire ORF which was cleaved out with SmaI and EcoRI was integrated; expressed in transfected cells; host or cells: Xenopus oocytes injected with 15 ng cRNA transcribed in vitro from pcDNA3/OCTN1
T1 sequence (Q9H015 1-551 I306T/L503F): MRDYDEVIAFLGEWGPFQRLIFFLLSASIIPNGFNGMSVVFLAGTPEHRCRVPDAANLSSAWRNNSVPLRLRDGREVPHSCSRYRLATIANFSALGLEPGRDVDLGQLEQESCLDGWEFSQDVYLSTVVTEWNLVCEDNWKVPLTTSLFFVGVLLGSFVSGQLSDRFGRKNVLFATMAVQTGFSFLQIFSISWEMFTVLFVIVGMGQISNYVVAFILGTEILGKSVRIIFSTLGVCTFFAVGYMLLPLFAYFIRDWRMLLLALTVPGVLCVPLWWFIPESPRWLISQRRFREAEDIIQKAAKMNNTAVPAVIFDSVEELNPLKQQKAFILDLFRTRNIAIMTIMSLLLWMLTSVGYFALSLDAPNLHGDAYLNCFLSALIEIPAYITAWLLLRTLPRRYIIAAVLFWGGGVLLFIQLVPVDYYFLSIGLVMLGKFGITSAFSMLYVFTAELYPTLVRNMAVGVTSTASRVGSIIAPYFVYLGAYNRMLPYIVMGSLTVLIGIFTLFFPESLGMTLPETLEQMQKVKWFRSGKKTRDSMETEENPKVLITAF
In words: Transport experiment in HEK293 cells transfected with human OCTN1 (pcDNA3/OCTN1). Conditions: for uptake of labeled substrate into human OCTN1-transfected cells: HEK293 cells, compared with Mock or untreated cells, 37° C. As for the experimental part:
The human fetal-kidney-derived cell strain, HEK 293 cells were transfected with the plasmid pcDNA3/OCTN1 and pcDNA3 vector containing no insert as a control by the calcium phosphate method. First, the plasmid DNA (10 μg), a Hepes buffer solution (137 mM NaCl, 5 mM KCl, 0.7 mM Na2HPO4, 6 mM Dextrose, and 21 mM Hepes pH 7.1) (1 ml), and 2 M CaCl2 (62.5 μl) were combined and allowed to stand at room temperature for 30 min or more to form calcium phosphate coprecipitates. After cells were plated on 10-cm plates at 1.5×10^6 cells per plate and cultured for 24 h, the calcium phosphate coprecipitates were added thereto, and the cells were further cultured for 24 h. Then, plates were washed with phosphate buffered saline (PBS), and the cells were further cultured for 24 h after the addition of fresh culture medium.
(§1) Transport experiment was performed using cells transfected with the plasmid DNA or untreated cells according to the following procedures. Cells were detached from plates using a rubber policeman, suspended in a transport buffer (containing 125 mM NaCl, 4.8 mM KCl, 5.6 mM (+)-glucose, 1.2 mM CaCl2, 1.2 mM KH2PO4, 1.2 mM MgSO4, and 25 mM Hepes pH 7.4), and pre-incubated for 20 min. An appropriate amount of each labeled substrate ([^14C]TEA (tetraethylammonium) (NEN), [^3H]carnitine (L-carnitine hydrochloride) (Amersham), [^3H]PCG (benzylpenicillin) (Amersham), [^3H]quinidine (ARC), or [^3H]pyrilamine (mepyramine) (Amersham)) was then added to the cell suspension, and the resulting mixture was incubated at 37° C. for a predetermined period of time. Incubated cells were overlaid on a silicon layer prepared by layering a mixture of silicon oil and liquid paraffin (specific gravity 1.022) on a 3 M KCl layer, and separated by centrifugation. Radioactivity of cells was measured to determine the into-the-cell transport activity. In this case, 1×10^6 cells were used as one point of cells. HEK 293 cells were cultured in Dulbecco's MEM containing 10% fetal calf serum (FCS) in an atmosphere of 5% carbon dioxide at 37° C.
First, the transporter capacity was measured in the cells transfected with pcDNA3/OCTN1 and untreated cells using TEA as a substrate (FIG. 5). […] Next, effects of the addition of unlabeled TEA on the labeled substrate uptake in this system (cold inhibition) was examined (FIG. 6). […] Next, to obtain the Km (Michaelis constant) value of human OCTNL to TEA, the uptake of ^14C-TEA with various concentrations was measured (FIG. 7). […] Next, the transport capacity of human OCTN1 for other substrate than TEA was examined (FIG. 8).

Assay [2] concerns the target T1, human OCTN1. In words: Transport experiment using Xenopus oocytes injected with human OCTN1 cRNA. To be noted: 25° C., 1 h, compared with water-injected oocytes. The procedure:
cRNA was synthesized in vitro using T7 RNA polymerase with pcDNA3/OCTN1 as a template. This cRNA was diluted to the concentration of 0.3 ng/nl, and its 50-nl (15 ng) aliquot was injected into a single oocyte. As a control, 50 nl of distilled water was injected. These oocytes were cultured for 3 days, and then used for the transport experiment. After being preincubated in an uptake buffer (0.05% Tween 80, 100 mM NaCl, 2 mM KCl, 1 mM CaCl2, 1 mM MgCl2, and 10 mM Hepes pH 7.4) at 25° C. for 20 min, the oocytes were transferred to the uptake buffer containing 0.5 ml of labeled substrate to initiate the uptake. After the incubation at 25° C. for 1 h, the oocytes were washed in the ice-cold uptake buffer three times to terminate the reaction. The oocytes were solubilized in 5% SDS and mixed with Cleasol I (a cocktail for liquid scintillation counter) (3 ml) to determine the radioactivity. The radioactivity of the uptake buffer which contained the labeled compound at the time of incubation (external solution) (10 μl) was also similarly measured. The ratio of the radioactivity (dpm value) in the oocytes to that (dpm value) in the external solution was used as the uptake activity.

The target of assay [3] is T2, human OCTN2 (Homo sapiens, UniProt O76082).
T2 construct: clones from both fragments were ligated at the PstI site in the overlapping region; expressed in transfected cells
T2 sequence (O76082 1-557): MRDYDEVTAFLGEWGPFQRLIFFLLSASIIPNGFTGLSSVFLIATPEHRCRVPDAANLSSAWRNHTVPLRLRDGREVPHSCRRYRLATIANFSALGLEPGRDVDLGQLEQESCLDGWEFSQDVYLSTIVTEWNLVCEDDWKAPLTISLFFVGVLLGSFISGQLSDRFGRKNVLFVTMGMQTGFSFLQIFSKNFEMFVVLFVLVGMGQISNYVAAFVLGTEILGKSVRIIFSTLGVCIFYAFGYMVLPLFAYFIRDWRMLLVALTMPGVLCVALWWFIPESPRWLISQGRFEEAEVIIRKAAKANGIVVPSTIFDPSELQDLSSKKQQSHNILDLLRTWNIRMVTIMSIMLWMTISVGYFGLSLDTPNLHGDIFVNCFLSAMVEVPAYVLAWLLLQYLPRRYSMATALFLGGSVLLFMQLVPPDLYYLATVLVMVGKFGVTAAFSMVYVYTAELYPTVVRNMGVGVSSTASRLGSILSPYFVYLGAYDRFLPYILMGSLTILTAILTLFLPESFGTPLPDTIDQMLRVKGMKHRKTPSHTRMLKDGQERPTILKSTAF
Kind of assay: Transport experiment in HEK cells transfected with human OCTN2 (pcDNA3/OCTN2). Conditions: for transport by human OCTN2: HEK cells transfected with pcDNA3/OCTN2, compared with Mock and pcDNA3/OCTN1. The procedure: as §1
HEK cells were transfected with pcDNA3/OCTN2, the pcDNA3 vector containing no insert (Mock), or pcDNA3/OCTN1 by the method described in Example 6 to perform transport experiments.
Next, Na^+ dependence of human OCTN2-mediated carnitine transport was examined using a transport buffer in which Na^+ was replaced with K+(FIG. 12).

From patent publication US7947470B2, “Polynucleotides encoding hOCTN1 polypeptide” (Chugai Seiyaku Kabushiki Kaisha, priority 1997, dated 2011) come the findings set out here.

Each structure is given as a SMILES string. Starred links: 1 amine or outer side, 2 acyl side, 3 side chain; linkers in the order of their positions; H or OH if unused. Positions of bridges follow the written chain, without caps; N, C: chain ends. Non-standard residues stand in square brackets, D forms with d. Residues, ends and D or L forms follow the SMILES beside them. Chains are numbered I, II in the order given. Actinocin(9to1) = Cc1c2oc3c(C)ccc(C(=O)[*:1])c3nc-2c(C(=O)[*:2])c(N)c1=O; NMeV = CN[C@H](C(=O)O)C(C)C; Sar = CNCC(=O)O

For orientation: Km means the substrate concentration at which the rate is half of its maximum.

Take `C[N+](C)(C)C[C@H](O)CC(=O)[O-].Cl` [carnitine, L-carnitine hydrochloride]: the “uptake of labeled substrate into human OCTN1-transfected cells” value in assay [1] was “significant increase in the uptake”. Also, the “uptake activity / transport capacity of human OCTN1 cRNA-injected oocytes” value (from here on “uptake activity / transport capacity”) in assay [2] is “expresses the transport capacity”. In assay [3], the “transport by human OCTN2” value is recorded as “high capacity to efficiently transport”. Moreover, the “carnitine transport activity of human OCTN2 in the absence of Na+” value in assay [3] (absence of Na+) is listed as “no such activity”. Also, the “carnitine transport activity of human OCTN2 in the presence of Na+” value in assay [3] (presence of Na+) is recorded as “time-dependent carnitine transport activity”. For the same molecule, the “Na+ dependence of human OCTN2-mediated carnitine transport” value in assay [3] (transport buffer in which Na+ was replaced with K+) is listed as “completely depended on the presence of Na^+”.

For `CC[C@]1(O)C[C@@H]2CN(CCc3c([nH]c4ccccc34)[C@@](C(=O)OC)(c3cc4c(cc3OC)N(C)[C@H]3[C@@](O)(C(=O)OC)[C@H](OC(C)=O)[C@]5(CC)C=CCN6CC[C@]43[C@@H]65)C2)C1` [vinblastine], the “uptake activity / transport capacity” value in assay [2] is listed as “has the activity to transport”.

`C=C[C@H]1C[N@@]2CC[C@H]1C[C@@H]2[C@@H](O)c1ccnc2ccc(OC)cc12` [quinidine]: the “uptake of labeled substrate into human OCTN1-transfected cells” value in assay [1] is listed as “significant increase in the uptake”. The “uptake activity / transport capacity” value in assay [2] was “expresses the transport capacity”.

In the case of `COc1cc([C@@H]2c3cc4c(cc3[C@@H](O[C@@H]3O[C@@H]5CO[C@@H](C)O[C@H]5[C@H](O)[C@H]3O)[C@H]3COC(=O)[C@H]23)OCO4)cc(OC)c1O` [etoposide], the “uptake activity / transport capacity” value in assay [2] is listed as “has the activity to transport”.

Turning to `CC[N+](CC)(CC)CC` [TEA, tetraethylammonium], in assay [1], the “uptake of labeled substrate into human OCTN1-transfected cells” value was “reaction time-dependent TEA uptake into the human OCTN1-transfectd cells was clearly observed”. In addition, in assay [1] (HEK cells transfected with pcDNA3/OCTN1, Example 8), the “transport by human OCTN1 (comparison with OCTN2)” value was “efficiently transported by human OCTN1”. For the same molecule, in assay [1] (Lineweaver-Burk plot of net uptake (OCTN1-transfected minus Mock HEK293 cells), 14C-TEA), the “maximal velocity, Vmax” value was determined as 6.68±0.34 nmol/3 min/mg. Besides, in assay [1] (Lineweaver-Burk plot of net uptake (OCTN1-transfected minus Mock HEK293 cells), 14C-TEA, read-out: Km (Michaelis constant) value of human OCTN1 to TEA), the Km was determined as 440 ± 40 µM. In assay [1] (human OCTN1-transfected HEK293 cells), the “effect of unlabeled (cold) TEA on labeled substrate uptake (cold inhibition)” value is on record as “decrease in the apparent uptake of the labeled substrate was clearly seen depending on the concentration of cold TEA added”. For the same molecule, the “uptake activity / transport capacity” value in assay [2] is listed as “expresses the transport capacity”. In assay [3], the “transport by human OCTN2” value is “hardly transported”.

As to `Cc1c2oc3c(C)ccc(C(=O)N[C@@H]4C(=O)N[C@H](C(C)C)C(=O)N5CCC[C@H]5C(=O)N(C)CC(=O)N(C)[C@@H](C(C)C)C(=O)O[C@@H]4C)c3nc-2c(C(=O)N[C@@H]2C(=O)N[C@H](C(C)C)C(=O)N3CCC[C@H]3C(=O)N(C)CC(=O)N(C)[C@@H](C(C)C)C(=O)O[C@@H]2C)c(N)c1=O` [actinomycin D] (I: T[dV]P[Sar][NMeV] / II: T[dV]P[Sar][NMeV]; ester I:1-I:C, II:1-II:C; linker I:N-II:N via Actinocin(9to1)), in assay [2], the “uptake activity / transport capacity” value was “has the activity to transport”.

With `COc1cccc2c1C(=O)c1c(O)c3c(c(O)c1C2=O)C[C@@](O)(C(C)=O)C[C@@H]3O[C@H]1C[C@H](N)[C@H](O)[C@H](C)O1` [daunomycin], the “uptake activity / transport capacity” value in assay [2] is “has the activity to transport”.

Regarding `CC1(C)S[C@@H]2[C@H](NC(=O)Cc3ccccc3)C(=O)N2[C@H]1C(=O)O` [PCG, benzylpenicillin], the “uptake of labeled substrate into human OCTN1-transfected cells” value in assay [1] is “no significant increase in the uptake”.

For `COc1ccc(CN(CCN(C)C)c2ccccn2)cc1` [pyrilamine], the “uptake of labeled substrate into human OCTN1-transfected cells” value in assay [1] was “significant increase in the uptake”. In addition, the “uptake activity / transport capacity” value in assay [2] was “expresses the transport capacity”.
